Assay results as given in ChEMBL document CHEMBL6092162, “Identification of novel and potent triazoles targeting CYP51 for antifungal: Design, synthesis, and biological study” (Eur J Med Chem, 2024).
In brackets after ≈: the same amount, converted by molar mass.

Key:
Format in all cases: functional
Candida albicans [1] = test: Antifungal activity against Candida albicans SC5314 assessed as inhibition of fungal growth by CLSI M27-A3 guidelines based method
Candida albicans [2] = test: Antifungal activity against Candida albicans GIM 2.194 assessed as inhibition of fungal growth by CLSI M27-A3 guidelines based method
Candida tropicalis = test: Antifungal activity against Candida tropicalis GIM 2.183 assessed as inhibition of fungal growth by CLSI M27-A3 guidelines based method
Candida parapsilosis = test: Antifungal activity against Candida parapsilosis GIM 2.190 assessed as inhibition of fungal growth by CLSI M27-A3 guidelines based method; conditions: Lodderomyces parapsilosis
Nakaseomyces glabratus = test: Antifungal activity against Candida glabrata assessed as inhibition of fungal growth by CLSI M27-A3 guidelines based method
Pichia kudriavzevii = test: Antifungal activity against Candida krusei GIM 2.1 assessed as inhibition of fungal growth by CLSI M27-A3 guidelines based method
Cryptococcus neoformans = test: Antifungal activity against Cryptococcus neoformans CGMCC 2.3161 assessed as inhibition of fungal growth by CLSI M27-A3 guidelines based method

Row | MIC80 (Candida albicans [1]) [µg/mL] | MIC80 (Candida albicans [2]) [µg/mL] | MIC80 (Candida tropicalis) [µg/mL] | MIC80 (Candida parapsilosis) [µg/mL] | MIC80 (Nakaseomyces glabratus) [µg/mL] | MIC80 (Pichia kudriavzevii) [µg/mL] | MIC80 (Cryptococcus neoformans) [µg/mL] | SMILES
1 | 0.25 (≈ 0.488 µM) | 1 (≈ 1.95 µM) | 0.5 (≈ 0.975 µM) | 0.25 (≈ 0.488 µM) | 16 (≈ 31.2 µM) | 16 (≈ 31.2 µM) | 16 (≈ 31.2 µM) | CC(C)C(=O)N1CCN(c2ccc(CN(C)CC(O)(Cn3cncn3)c3ccc(F)cc3F)cc2)CC1 (stereo unspecified)
2 | 0.013 (≈ 0.0201 µM) | 0.025 (≈ 0.0387 µM) | 0.006 (≈ 0.00929 µM) | 0.006 (≈ 0.00929 µM) | 0.2 (≈ 0.31 µM) | 0.1 (≈ 0.155 µM) |  | CN(Cc1ccc(N2CCN(Cc3c(Cl)cccc3Br)CC2)cc1)CC(O)(Cn1cncn1)c1ccc(F)cc1F (stereo unspecified)
3 | 0.013 (≈ 0.0207 µM) | 0.1 (≈ 0.159 µM) | 0.013 (≈ 0.0207 µM) | 0.013 (≈ 0.0207 µM) | 0.2 (≈ 0.318 µM) | 0.1 (≈ 0.159 µM) | 0.1 (≈ 0.159 µM) | CN(Cc1ccc(N2CCN(Cc3c(F)cccc3Br)CC2)cc1)CC(O)(Cn1cncn1)c1ccc(F)cc1F (stereo unspecified)
4 | 0.013 (≈ 0.0188 µM) | 0.025 (≈ 0.0362 µM) | 0.006 (≈ 0.00869 µM) | 0.006 (≈ 0.00869 µM) | 0.1 (≈ 0.145 µM) | 0.1 (≈ 0.145 µM) |  | CN(Cc1ccc(N2CCN(Cc3cc(Br)ccc3Br)CC2)cc1)CC(O)(Cn1cncn1)c1ccc(F)cc1F (stereo unspecified)
5 | 0.013 (≈ 0.0191 µM) | 0.025 (≈ 0.0368 µM) | 0.025 (≈ 0.0368 µM) | 0.013 (≈ 0.0191 µM) | 0.2 (≈ 0.294 µM) | 0.2 (≈ 0.294 µM) | 0.2 (≈ 0.294 µM) | CN(Cc1ccc(N2CCN(Cc3ccc(C(F)(F)F)cc3Br)CC2)cc1)CC(O)(Cn1cncn1)c1ccc(F)cc1F (stereo unspecified)
6 | 0.025 (≈ 0.0409 µM) | 0.025 (≈ 0.0409 µM) | 0.025 (≈ 0.0409 µM) | 0.05 (≈ 0.0818 µM) | 0.4 (≈ 0.654 µM) | 0.1 (≈ 0.164 µM) | 0.2 (≈ 0.327 µM) | CN(Cc1ccc(N2CCN(Cc3ccc(Br)cc3)CC2)cc1)CC(O)(Cn1cncn1)c1ccc(F)cc1F (stereo unspecified)
7 | 0.013 (≈ 0.0201 µM) | 0.013 (≈ 0.0201 µM) | 0.006 (≈ 0.00929 µM) | 0.006 (≈ 0.00929 µM) | 0.2 (≈ 0.31 µM) | 0.2 (≈ 0.31 µM) | 0.1 (≈ 0.155 µM) | CN(Cc1ccc(N2CCN(Cc3cc(Cl)ccc3Br)CC2)cc1)CC(O)(Cn1cncn1)c1ccc(F)cc1F (stereo unspecified)
8 | 0.025 (≈ 0.0441 µM) | 0.006 (≈ 0.0106 µM) | 0.013 (≈ 0.0229 µM) | 0.006 (≈ 0.0106 µM) | 0.2 (≈ 0.353 µM) | 0.1 (≈ 0.176 µM) | 0.1 (≈ 0.176 µM) | CN(Cc1ccc(N2CCN(Cc3ccccc3Cl)CC2)cc1)CC(O)(Cn1cncn1)c1ccc(F)cc1F (stereo unspecified)
9 | 0.1 (≈ 0.18 µM) | 0.2 (≈ 0.359 µM) | 0.1 (≈ 0.18 µM) | 0.4 (≈ 0.719 µM) | 3.2 (≈ 5.75 µM) | 3.2 (≈ 5.75 µM) | 3.2 (≈ 5.75 µM) | C#Cc1ccc(CN2CCN(c3ccc(CN(C)CC(O)(Cn4cncn4)c4ccc(F)cc4F)cc3)CC2)cc1 (stereo unspecified)
10 | 0.013 (≈ 0.0188 µM) | 0.013 (≈ 0.0188 µM) | 0.006 (≈ 0.00869 µM) | 0.006 (≈ 0.00869 µM) | 0.1 (≈ 0.145 µM) | 0.1 (≈ 0.145 µM) |  | CN(Cc1ccc(N2CCN(Cc3ccc(Br)cc3Br)CC2)cc1)CC(O)(Cn1cncn1)c1ccc(F)cc1F (stereo unspecified)
11 | 0.013 (≈ 0.0244 µM) | 0.013 (≈ 0.0244 µM) | 0.013 (≈ 0.0244 µM) | 0.025 (≈ 0.0469 µM) | 0.4 (≈ 0.751 µM) | 0.4 (≈ 0.751 µM) | 0.2 (≈ 0.375 µM) | CN(Cc1ccc(N2CCN(Cc3ccccc3)CC2)cc1)CC(O)(Cn1cncn1)c1ccc(F)cc1F (stereo unspecified)
12 | 0.25 (≈ 0.501 µM) | 0.5 (≈ 1 µM) | 0.5 (≈ 1 µM) | 0.1 (≈ 0.201 µM) | 16 (≈ 32.1 µM) | 16 (≈ 32.1 µM) | 8 (≈ 16 µM) | CCC(=O)N1CCN(c2ccc(CN(C)CC(O)(Cn3cncn3)c3ccc(F)cc3F)cc2)CC1 (stereo unspecified)
13 | 0.025 (≈ 0.0457 µM) | 0.013 (≈ 0.0238 µM) | 0.013 (≈ 0.0238 µM) | 0.025 (≈ 0.0457 µM) | 1.6 (≈ 2.93 µM) | 1.6 (≈ 2.93 µM) | 0.4 (≈ 0.732 µM) | CN(Cc1ccc(N2CCN(C(=O)c3ccccc3)CC2)cc1)CC(O)(Cn1cncn1)c1ccc(F)cc1F (stereo unspecified)
14 | 8 (≈ 17.5 µM) | 8 (≈ 17.5 µM) | 4 (≈ 8.76 µM) | 8 (≈ 17.5 µM) | > 32 | > 32 | > 32 | CN1CCN(c2ccc(CN(C)CC(O)(Cn3cncn3)c3ccc(F)cc3F)cc2)CC1 (stereo unspecified)
15 | 0.2 (≈ 0.366 µM) | 0.2 (≈ 0.366 µM) | 0.2 (≈ 0.366 µM) | 0.4 (≈ 0.732 µM) | 1.6 (≈ 2.93 µM) | 0.8 (≈ 1.46 µM) | 3.2 (≈ 5.85 µM) | Cc1ccc(CN2CCN(c3ccc(CN(C)CC(O)(Cn4cncn4)c4ccc(F)cc4F)cc3)CC2)cc1 (stereo unspecified)
16 | 0.025 (≈ 0.0441 µM) | 0.013 (≈ 0.0229 µM) | 0.013 (≈ 0.0229 µM) | 0.006 (≈ 0.0106 µM) | 0.2 (≈ 0.353 µM) | 0.1 (≈ 0.176 µM) | 0.1 (≈ 0.176 µM) | CN(Cc1ccc(N2CCN(Cc3cccc(Cl)c3)CC2)cc1)CC(O)(Cn1cncn1)c1ccc(F)cc1F (stereo unspecified)
17 | 0.5 (≈ 1.03 µM) | 0.1 (≈ 0.206 µM) | 0.5 (≈ 1.03 µM) | 0.1 (≈ 0.206 µM) | 16 (≈ 33 µM) | 16 (≈ 33 µM) | 8 (≈ 16.5 µM) | CC(=O)N1CCN(c2ccc(CN(C)CC(O)(Cn3cncn3)c3ccc(F)cc3F)cc2)CC1 (stereo unspecified)
